Test results: patent US11214569B2, “Prodrugs of quinuclidine ring-containing muscarinic agonists and compositions and methods thereof” (Lenz Therapeutics, Inc., priority 2018, dated 2022)

Assay: pH vs. solution stability of phosphono oxylmethyl prodrugs
Assay type: physicochemical

Substance: phosphono oxylmethyl aceclidine
- Solubility (pH of solution 5.22): Best
- Solubility (pH of solution 6.22): Fair
- Solubility (pH of solution 7.22): Poor

Substance: phosphono oxymethyl talsaclidine
- Solubility (pH of solution 5.45): Best
- Solubility (pH of solution 6.45): Fair
- Solubility (pH of solution 7.45): Poor
